Test results from patent US11761894B2, “Silicon-rhodamine fluorescent probe containing hydrophobic group and use thereof” (AJOU UNIVERSITY INDUSTRY—ACADEMIC COOPERATION FOUNDATION, priority 2019, dated 2023).

Key:
[1] = test system: mitochondria in HeLa cells; assay: Colocalization test of SiR-Mito probes with MitoTracker green in HeLa cells; type: cell-based, human; conditions: 1 μM probe, 1 h; for Mitochondria Targeting (Pearson coefficient for colocalization with MitoTracker green): 0.5 μM MitoTracker green
Procedure: HeLa cells were incubated with cell culture media containing 1 μM SiR-Mito probe, and 0.5 μM MitoTracker green. After 1 h, HeLa cells were washed three times with 1×PBS for and observed with a LEICA DMi8 fluorescent microscope. Each experiment was observed using 512-542 nm emitter for FITC channel (for MitoTracker Green), and 663-738 nm exciter, 545-625 nm emitter for Cy5 channel (for SiR-Mito probes). Scale bar: 50 μm.
HeLa human cervical cancer cells were cultured in Dulbecco's modified eagle media (DMEM, GIBCO) containing 10% fetal bovine serum (FBS, GIBCO) and 1% penicillin (GIBCO) at 37° C. in a humidified incubator with 5% CO2. For the fluorescence microscope imaging, cells were harvested using TrypLE™ Express (GIBCO) and resuspended in fresh culture medium. Harvested cells with a density of 4.0×10^3 cells/well were seeded on a HeLa 96 black well plate (CORNING) and incubated for 24 h. Cells were incubated with SiR-Mito probes (1 μM) and MitoTracker Green (0.5 μM) for 60 min. After the incubation, cells were washed with 1×PBS for three times and observed with inverted fluorescence microscope (DMi8, LEICA). Each experiment was observed using a 325-375 nm exciter, 435-485 nm emitter for DAPI channel, 460-500 nm exciter, 512-542 nm emitter for FITC channel, 541-551 nm exciter, 565-605 nm emitter for Rhodamine channel, and 663-738 nm exciter, 545-625 nm emitter for Cy5 channel.
To determine the effect of probe hydrophobicity on the efficiency of targeting to mitochondria, the Pearson coefficient for colocalization of SiR-Mito probes and MitoTracker green, a commercial fluorescent mitochondrial bioprobe, was measured (FIG. 1). For the colocalization test, human cervical cancer HeLa cells were seeded on 96-well plates and incubated for 1 h with 1 μM of each different SiR-Mito probe and 0.5 μM MitoTracker green, washed briefly with 1×PBS, and imaged with a LEICA DMi8 fluorescent microscope using the 40× objective.

[2] = Photophysical properties (excitation/emission wavelength, absolute quantum yield, fluorescence intensity in PBS); type: physicochemical; conditions: for Φ (quantum yield): absolute quantum yield
Procedure: All reactions were carried out under an atmosphere of nitrogen or argon in air-dried glassware with magnetic stirring. Air- and/or moisture-sensitive liquids were transferred with syringe. Organic solutions were concentrated by rotary evaporation at 25-60° C. at 15-30 torr. All solvents and common materials were purchased from suppliers and used without further purification. Column chromatography was carried out as “Flash Chromatography” using Biotage MPLC machine. ^1H NMR and ^13C NMR data were recorded on an JEOL ECZ-600R Magnetic Resonance System (600 MHz) in Ajou University. Recorded shifts are reported in parts per million (6): Chemical shift, multiplicity (s=singlet, d=doublet, t=triplet, q=quartet, m=multiplet, br=broad), coupling constant (J, Hz) and integration. Low resolution mass spectrometry (LRMS) was obtained by LC/MS system, Finnigan MSQplus Surveyer (Thermo Scientific) or 6120 Quadrupole LC/MS (Agilent Technologies). The progress of reaction was monitored using thin layer chromatography (TLC) (silica gel 60, F254 0.25 mm), and components were visualized by observation under UV light (254 and 365 nm) or by treating the TLC plates with Phosphonolybdic acid (PMA), KMnO4, or ninhydrin followed by heating. Cell culture reagents including fatal bovine serum, culture media, and antibiotic-antimycotic solution were purchased from GIBCO. MitoTracker Green, and Hoechst were purchased from Invitrogen. The culture dish and glassbottom dish were purchased from CORNING, and SPL. All spectra experiments were performed in a 1×1 cm quartz cuvette. Fluorescence emission spectra were recorded on JASCO FP-8200 spectrofluorometer, and UV absorption spectra were recorded on JASCO V-670 spectrophotometer. Absolute quantum yield was measured by QE-2000 (Otsuka Electronics).

Compound | Intracellular fluorescence (SiR channel) [1] | Em (emission wavelength) [2] [nm] | Ex (excitation wavelength) [2] [nm] | Φ (quantum yield) [2] | Mitochondria Targeting (Pearson coefficient for colocalization with MitoTracker green) [1]
Cc1ccc(C(=O)NCCO)cc1C1=C2C=CC(=[N+](C)C)C=C2[Si](C)(C)c2cc(N(C)C)ccc21 [SiR-Mito 1, N-(7-(dimethylamino)-10-(5-((2-hydroxyethyl)carbamoyl)-2-methylphenyl)-5,5-dimethyldibenzo[b,e]silin-3(5H)-ylidene)-N-methylmethanaminium] | absence of fluorescence signal | 668 | 661 | 0.32 | 
CCNC(=O)c1ccc(C)c(C2=C3C=CC(=[N+](C)C)C=C3[Si](C)(C)c3cc(N(C)C)ccc32)c1 [SiR-Mito 2, N-(7-(dimethylamino)-10-(5-(ethylcarbamoyl)-2-methylphenyl)-5,5-dimethyldibenzo[b,e]silin-3(5H)-ylidene)-N-methylmethanaminium] |  | 668 | 662 | 0.40 | * (* 0.7 ≤ R < 0.8)
CCCCNC(=O)c1ccc(C)c(C2=C3C=CC(=[N+](C)C)C=C3[Si](C)(C)c3cc(N(C)C)ccc32)c1 [SiR-Mito 3, N-(10-(5-(butylcarbamoyl)-2-methylphenyl)-7-(dimethylamino)-5,5-dimethyldibenzo[b,e]silin-3(5H)-ylidene)-N-methylmethanaminium] |  | 665 | 652 | 0.29 | 
Cc1ccc(C(=O)NCc2ccccc2)cc1C1=C2C=CC(=[N+](C)C)C=C2[Si](C)(C)c2cc(N(C)C)ccc21 [SiR-Mito 4, N-(10-(5-(benzylcarbamoyl)-2-methylphenyl)-7-(dimethylamino)-5,5-dimethyldibenzo[b,e]silin-3(5H)-ylidene)-N-methylmethanaminium] |  | 666 | 651 | 0.30 | * (* 0.7 ≤ R < 0.8)
Cc1ccc(C(=O)NCCc2ccccc2)cc1C1=C2C=CC(=[N+](C)C)C=C2[Si](C)(C)c2cc(N(C)C)ccc21 [SiR-Mito 6, N-(7-(dimethylamino)-5,5-dimethyl-10-(2-methyl-5-(phenethylcabamoyl)phenyl)dibenzo[b,e]silin-3(5H)-ylidene)-N-methylmethanaminium] |  | 668 | 651 | 0.30 | *** (*** 0.9 ≤ R)
Cc1ccc(C(=O)NC(C)(C)CC(C)(C)C)cc1C1=C2C=CC(=[N+](C)C)C=C2[Si](C)(C)c2cc(N(C)C)ccc21 [SiR-Mito 7, N-(7-(dimethylamino)-5,5-dimethyl-10-(2-methyl-5-((2,4,4-trimethylpentan-2-yl)carbamoyl)phenyl)dibenzo[b,e]silin-3(5H)-ylidene)-N-methylmethanaminium] |  | 667 | 650 | 0.29 | *** (*** 0.9 ≤ R)
Cc1ccc(C(=O)NCCC2CCCCC2)cc1C1=C2C=CC(=[N+](C)C)C=C2[Si](C)(C)c2cc(N(C)C)ccc21 [SiR-Mito 9, N-(10-(5-((2-cyclohexylethyl)carbamoyl)-2-methylphenyl)-7-(dimethylamino)-5,5-dimethyldibenzo[b,e]silin-3(5H)-ylidene)-N-methylmethanaminium] |  | 666 | 652 | 0.26 | *** (*** 0.9 ≤ R)
CCCCCCC(C)NC(=O)c1ccc(C)c(C2=C3C=CC(=[N+](C)C)C=C3[Si](C)(C)c3cc(N(C)C)ccc32)c1 (centres unmarked) [SiR-Mito 10, N-(7-(dimethylamino)-5,5-dimethyl-10-(2-methyl-5-(octan-2-ylcarbamoyl)phenyl)dibenzo[b,e]silin-3(5H)-ylidene)-N-methylmethanaminium] |  | 667 | 654 | 0.27 | *** (*** 0.9 ≤ R)
N-(10-(5-((cyclohexylmethyl) carbamoyl)-2-methylphenyl)-7 (dimethylamino)-5,5-dimethyldibenzo[b,e]silin-3(5H)-ylidene)-N-methylmethanaminium [SiR-Mito 5] |  | 669 | 651 | 0.29 | * (* 0.7 ≤ R < 0.8)
